In this assay the target is T1, C5AR1 (Homo sapiens, UniProt P21730).
T1 construct: host or cells: CHO-K1
T1 sequence (P21730 1-350): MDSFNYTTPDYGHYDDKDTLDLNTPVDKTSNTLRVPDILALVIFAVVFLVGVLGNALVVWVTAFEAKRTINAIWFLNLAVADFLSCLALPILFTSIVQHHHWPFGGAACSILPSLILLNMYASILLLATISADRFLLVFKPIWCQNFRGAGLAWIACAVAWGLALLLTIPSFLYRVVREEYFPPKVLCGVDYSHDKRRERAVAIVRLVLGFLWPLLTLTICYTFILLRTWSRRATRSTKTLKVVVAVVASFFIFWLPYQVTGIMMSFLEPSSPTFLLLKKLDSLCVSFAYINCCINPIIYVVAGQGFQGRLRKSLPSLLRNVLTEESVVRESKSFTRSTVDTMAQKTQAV
In words: hC5a DISCO IC50 assay (PathHunter beta-arrestin, antagonist mode). It counts as cell-based. The settings on record: CHO-K1 C5AR1 beta-arrestin cell line; antagonist vs 1-10 nM C5a agonist; geometric mean values; read-out: C5aR IC50. In outline: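 Antagonist added first, then 1-10 nM C5a agonist; cells incubated 1.5 h at 37 °C. Beta-arrestin signal developed with PathHunter detection reagent, 45 min at RT. IC50 in nmol/l from serial antagonist dilutions, reported as geometric mean of several measurements.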
The IC50 is the midpoint of a concentration-inhibition curve. With `COc1nccc(C)c1N1CCC(n2c(=O)n(Cc3ccccc3C(F)(F)F)c3c(OC)cccc32)CC1` [Example 234, 4-Methoxy-1-(2′-methoxy-4′-methyl-3,4,5,6-tetrahydro-2H-[1,3′]bipyridinyl-4-yl)-3-(2-trifluoromethyl-benzyl)-1,3-dihydro-benzoimidazol-2-one], the IC50 came out at 17 nM. On to `COc1cccc2c1n(Cc1ccccc1C(F)(F)F)c(=O)n2C1CCN(c2c(F)cccc2F)CC1` [Example 9, 1-[1-(2,6-Difluoro-phenyl)-piperidin-4-yl]-4-methoxy-3-(2-trifluoromethyl-benzyl)-1,3-dihydro-benzoimidazol-2-one], for which the IC50 is 32 nM.

`COc1cccc2c1n(Cc1ccccc1C(F)(F)F)c(=O)n2C1CCN(C(=O)OC(C)(C)C)C(C)C1` (centres unmarked) [Example 144, 4-[4-Methoxy-2-oxo-3-(2-trifluoromethyl-benzyl)-2,3-dihydro-benzoimidazol-1-yl]-2-methyl-piperidine-1-carboxylic acid tert-butyl ester]: the IC50 was 312 nM.

In the case of `COC1CN(c2nccc3c2n(Cc2ccccc2C(F)(F)F)c(=O)n3[C@@H]2CCN(c3c(C)cccc3F)C2)C1` [Example 205, 1-[(R)-1-(2-Fluoro-6-methyl-phenyl)-pyrrolidin-3-yl]-4-(3-methoxy-azetidin-1-yl)-3-(2-trifluoromethyl-benzyl)-1,3-dihydro-imidazo[4,5-c]pyridin-2-one], the IC50 was 45 nM. Regarding `COc1cccc2c1n(Cc1ccccc1C(F)(F)F)c(=O)n2C1CCN(C(=O)OC(C)(C)C)CC1C` (centres unmarked) [Example 146, 4-[4-Methoxy-2-oxo-3-(2-trifluoromethyl-benzyl)-2,3-dihydro-benzoimidazol-1-yl]-3-methyl-piperidine-1-carboxylic acid tert-butyl ester], the IC50 was 201 nM.

Turning to `COc1cccc2c1n(Cc1ccccc1C(F)(F)F)c(=O)n2[C@@H]1CCN(c2c(F)cccc2CN2CCNCC2)C1` [Example 135, 1-[(R)-1-(2-Fluoro-6-piperazin-1-ylmethyl-phenyl)-pyrrolidin-3-yl]-4-methoxy-3-(2-trifluoromethyl-benzyl)-1,3-dihydro-benzoimidazol-2-one], the IC50 came out at 5760 nM. Turning to `COc1nccc2c1n(Cc1ccccc1C(F)(F)F)c(=O)n2[C@@H]1CCN(C(=O)OC(C)(C)C)C1` [Example 39, (R)-3-[4-Methoxy-2-oxo-3-(2-trifluoromethyl-benzyl)-2,3-dihydro-imidazo[4,5-c]pyridin-1-yl]-pyrrolidine-1-carboxylic acid tert-butyl ester], the IC50 is 2430 nM. On to `COc1ccnc2c1n(Cc1ccccc1C(F)(F)F)c(=O)n2[C@@H]1CCN(C(=O)OC(C)(C)C)C1` [Example 43, (R)-3-[7-Methoxy-2-oxo-1-(2-trifluoromethyl-benzyl)-1,2-dihydro-imidazo[4,5-b]pyridin-3-yl]-pyrrolidine-1-carboxylic acid tert-butyl ester], for which the IC50 turned out to be 393 nM.

With `COc1cccc2c1n(Cc1ccccc1C(F)(F)F)c(=O)n2[C@@H]1CCN(c2cc(C)nn2C)C1` [Example 79, 1-[(R)-1-(2,5-Dimethyl-2H-pyrazol-3-yl)-pyrrolidin-3-yl]-4-methoxy-3-(2-trifluoromethyl-benzyl)-1,3-dihydro-benzoimidazol-2-one], the IC50 stood at 911 nM. With `COc1cccc2c1n(Cc1ccccc1C(F)(F)F)c(=O)n2[C@@H]1CCN(c2c(F)cccc2CN2CCC(OC)CC2)C1` [Example 137, 1-{(R)-1-[2-Fluoro-6-(4-methoxy-piperidin-1-ylmethyl)-phenyl]-pyrrolidin-3-yl}-4-methoxy-3-(2-trifluoromethyl-benzyl)-1,3-dihydro-benzoimidazol-2-one], the IC50 amounted to 133 nM. `COc1cccc2c1n(Cc1ccccc1C(F)(F)F)c(=O)n2[C@H]1CN(c2c(C)cccc2F)C[C@H]1C` (relative stereo) [Example 200, 1-[(3R*,4R*)-1-(2-Fluoro-6-methyl-phenyl)-4-methyl-pyrrolidin-3-yl]-4-methoxy-3-(2-trifluoromethyl-benzyl)-1,3-dihydro-benzoimidazol-2-one]: the IC50 amounted to 19 nM. On to `CCOC(=O)C1CN(C(=O)OC(C)(C)C)CCC1n1c(=O)n(Cc2ccccc2C(F)(F)F)c2c(OC)cccc21` (centres unmarked) [Example 164, 4-[4-Methoxy-2-oxo-3-(2-trifluoromethyl-benzyl)-2,3-dihydro-benzoimidazol-1-yl]-piperidine-1,3-dicarboxylic acid 1-tert-butyl ester 3-ethyl ester], for which the 50% inhibitory concentration (IC50) stood at 179 nM. `COc1cccc2c1n(Cc1ccccc1C(F)(F)F)c(=O)n2C1CCN(c2ncccc2C)CC1` [Example 232, 4-Methoxy-1-(3′-methyl-3,4,5,6-tetrahydro-2H-[1,2′]bipyridinyl-4-yl)-3-(2-trifluoromethyl-benzyl)-1,3-dihydro-benzoimidazol-2-one]: the IC50 is 82 nM. The value for `Cc1cccc(F)c1N1CC[C@@H](n2c(=O)n(Cc3ccccc3C(F)(F)F)c3c(OC4CCN(C)C4)nccc32)C1` (stereo partly drawn) [Example 130, 1-[(R)-1-(2-Fluoro-6-methyl-phenyl)-pyrrolidin-3-yl]-4-(1-methyl-pyrrolidin-3-yloxy)-3-(2-trifluoromethyl-benzyl)-1,3-dihydro-imidazo[4,5-c]pyridin-2-one] was 3910 nM; that for `COc1cccc2c1n(Cc1ccccc1C(F)(F)F)c(=O)n2[C@@H]1CCN(C(=O)OC2(C)COC2)C1` [Example 70, (R)-3-[4-Methoxy-2-oxo-3-(2-trifluoromethyl-benzyl)-2,3-dihydro-benzoimidazol-1-yl]-pyrrolidine-1-carboxylic acid 3-methyl-oxetan-3-yl ester] was 538 nM. `COc1cccc2c1n(Cc1ccccc1C(F)(F)F)c(=O)n2[C@H]1CN(c2c(C)cccc2F)C[C@@H]1C` (relative stereo) [Example 198, 1-[(3R*,4S*)-1-(2-Fluoro-6-methyl-phenyl)-4-methyl-pyrrolidin-3-yl]-4-methoxy-3-(2-trifluoromethyl-benzyl)-1,3-dihydro-benzoimidazol-2-one]: the IC50 worked out at 15 nM.

Turning to `COc1cccc2c1n(Cc1ccccc1C(F)(F)F)c(=O)n2C1CCN(C(=O)C2CC2)CC1` [Example 222, 1-(1-Cyclopropanecarbonyl-piperidin-4-yl)-4-methoxy-3-(2-trifluoromethyl-benzyl)-1,3-dihydro-benzoimidazol-2-one], the IC50 is 2650 nM. Take `COc1nccc2c1n(Cc1ccccc1C(F)(F)F)c(=O)n2[C@@H]1CCN(c2c(F)cccc2F)C1` [Example 42, 1-[(R)-1-(2,6-Difluoro-phenyl)-pyrrolidin-3-yl]-4-methoxy-3-(2-trifluoromethyl-benzyl)-1,3-dihydro-imidazo[4,5-c]pyridin-2-one]: the IC50 was 75 nM. Turning to `COc1cccc2c1n(Cc1ccccc1C(F)(F)F)c(=O)n2[C@@H]1CCN(c2c(C)c(C)nn2C)C1` [Example 85, 4-Methoxy-3-(2-trifluoromethyl-benzyl)-1-[(R)-1-(2,4,5-trimethyl-2H-pyrazol-3-yl)-pyrrolidin-3-yl]-1,3-dihydro-benzoimidazol-2-one], the IC50 turned out to be 712 nM. In the case of `COc1cccc2c1n(Cc1cnccc1C(C)C)c(=O)n2C1CCN(c2c(C)cccc2F)CC1` [Example 181, 1-[1-(2-Fluoro-6-methyl-phenyl)-piperidin-4-yl]-3-(4-isopropyl-pyridin-3-ylmethyl)-4-methoxy-1,3-dihydro-benzoimidazol-2-one] it was 22 nM; in that of `COc1ccnnc1Cn1c(=O)n([C@@H]2CCN(c3c(C)cccc3F)C2)c2cccc(OC)c21` [Example 95, 1-[(R)-1-(2-Fluoro-6-methyl-phenyl)-pyrrolidin-3-yl]-4-methoxy-3-(4-methoxy-pyridazin-3-ylmethyl)-1,3-dihydro-benzoimidazol-2-one], 191 nM; in that of `COc1cccc2c1n(Cc1ccccc1C(F)(F)F)c(=O)n2C1CCN(c2ccccc2OC2CCC2)CC1` [Example 241, 1-[1-(2-Cyclobutoxy-phenyl)-piperidin-4-yl]-4-methoxy-3-(2-trifluoromethyl-benzyl)-1,3-dihydro-benzoimidazol-2-one], 36 nM.

For the molecule `COc1nccc2c1n(Cc1ccccc1C(F)(F)F)c(=O)n2[C@@H]1CCN(c2c(C)cccc2C)C1` [Example 41, 1-[(R)-1-(2,6-Dimethyl-phenyl)-pyrrolidin-3-yl]-4-methoxy-3-(2-trifluoromethyl-benzyl)-1,3-dihydro-imidazo[4,5-c]pyridin-2-one], the IC50 is 18 nM. In the case of `COc1cccc2c1n(Cc1ccccc1C(F)(F)F)c(=O)n2C1CCCN(c2c(C)cccc2C)C1` (centres unmarked) [Example 217, 1-[1-(2,6-Dimethyl-phenyl)-piperidin-3-yl]-4-methoxy-3-(2-trifluoromethyl-benzyl)-1,3-dihydro-benzoimidazol-2-one] it was 158 nM; in that of `COc1cccc2c1n(Cc1ccccc1C(F)(F)F)c(=O)n2[C@@H]1CCN(c2c(F)cccc2C(C)(C)O)C1` [Example 91, 1-{(R)-1-[2-Fluoro-6-(1-hydroxy-1-methyl-ethyl)-phenyl]-pyrrolidin-3-yl}-4-methoxy-3-(2-trifluoromethyl-benzyl)-1,3-dihydro-benzoimidazol-2-one], 70 nM; in that of `COc1cccc2c1n(Cc1ccccc1C(F)(F)F)c(=O)n2C1CCN(c2ccccc2O)CC1` [Example 230, 1-[1-(2-Hydroxy-phenyl)-piperidin-4-yl]-4-methoxy-3-(2-trifluoromethyl-benzyl)-1,3-dihydro-benzoimidazol-2-one], 129 nM.

These data come from patent US11739070B2, “C5A receptor modulators” (IDORSIA PHARMACEUTICALS LTD, priority 2018, dated 2023).
